Test results taken from patent publication US11618743B2, “Herbicidal compounds” (SYNGENTA PARTICIPATIONS AG, priority 2017, dated 2023).

What was measured:
Assay in all cases: Post-emergence efficacy, Method A
Format in all cases: in vivo
[1] = tested on: Lolium perenne (LOLPE); settings: Application rate 500 g/Ha, evaluated after 13 days; for Control of weed species LOLPE after post-emergence application (100=total damage to plant; 0=no damage to plant): Method A; for Control of weed species after post-emergence application, LOLPE: 100=total damage to plant, 0=no damage
Description: (§1) Seeds of a variety of test species were sown in standard soil in pots. After cultivation for 14 days (post-emergence) under controlled conditions in a glasshouse (at 24/16° C., day/night; 14 hours light; 65% humidity), the plants were sprayed with an aqueous spray solution derived from the dissolution of the technical active ingredient formula (I) in a small amount of acetone and a special solvent and emulsifier mixture referred to as IF50 (11.12% Emulsogen EL360 TM+44.44% N-methylpyrrolidone+44.44% Dowanol DPM glycol ether), to create a 50 g/l solution which was then diluted to required concentration using 0.25% or 1% Empicol ESC70 (Sodium lauryl ether sulphate)+1% ammonium sulphate as diluent.
(§2) The test plants were then grown in a glasshouse under controlled conditions (at 24/16° C., day/night; 14 hours light; 65% humidity) and watered twice daily. After 13 days the test was evaluated (100=total damage to plant; 0=no damage to plant).
(§3) Ipomoea hederacea (IPOHE), Euphorbia heterophylla (EPHHL), Chenopodium album (CHEAL), Amaranthus palmeri (AMAPA), Lolium perenne (LOLPE), Digitaria sanguinalis (DIGSA), Eleusine indica (ELEIN), Echinochloa crus-galli (ECHCG), Setaria faberi (SETFA)

[2] = tested on: Ipomoea hederacea (IPOHE); settings: Application rate 500 g/Ha; evaluated after 13 days; 100=total damage to plant, 0=no damage
Description: as §1, §2, §3

[3] = tested on: Echinochloa crus-galli (ECHCG); settings: Application rate 500 g/Ha, evaluated after 13 days; for Control of weed species after post-emergence application, ECHCG: 100=total damage to plant, 0=no damage; for Control of weed species ECHCG after post-emergence application (100=total damage to plant; 0=no damage to plant): Method A
Description: as §1, §2, §3

[4] = tested on: Chenopodium album (CHEAL); settings: Application rate 500 g/Ha, evaluated after 13 days; for Control of weed species after post-emergence application, CHEAL: 100=total damage to plant, 0=no damage; for Control of weed species CHEAL after post-emergence application (100=total damage to plant; 0=no damage to plant): Method A
Description: as §1, §2, §3

[5] = tested on: Eleusine indica (ELEIN); settings: Application rate 500 g/Ha, evaluated after 13 days; for Control of weed species after post-emergence application, ELEIN: 100=total damage to plant, 0=no damage; for Control of weed species ELEIN after post-emergence application (100=total damage to plant; 0=no damage to plant): Method A
Description: as §1, §2, §3

[6] = tested on: Setaria faberi (SETFA); settings: Application rate 500 g/Ha, evaluated after 13 days; for Control of weed species after post-emergence application, SETFA: 100=total damage to plant, 0=no damage; for Control of weed species SETFA after post-emergence application (100=total damage to plant; 0=no damage to plant): Method A
Description: as §1, §2, §3

[7] = tested on: Digitaria sanguinalis (DIGSA); settings: Application rate 500 g/Ha, evaluated after 13 days; for Control of weed species after post-emergence application, DIGSA: 100=total damage to plant, 0=no damage; for Control of weed species DIGSA after post-emergence application (100=total damage to plant; 0=no damage to plant): Method A
Description: as §1, §2, §3

[8] = tested on: Amaranthus palmeri (AMAPA); settings: Application rate 500 g/Ha, evaluated after 13 days; for Control of weed species after post-emergence application, AMAPA: 100=total damage to plant, 0=no damage; for Control of weed species AMAPA after post-emergence application (100=total damage to plant; 0=no damage to plant): Method A
Description: as §1, §2, §3

[9] = tested on: Euphorbia heterophylla (EPHHL); settings: Application rate 500 g/Ha, evaluated after 13 days; for Control of weed species EPHHL after post-emergence application (100=total damage to plant; 0=no damage to plant): Method A; for Control of weed species after post-emergence application, EPHHL: 100=total damage to plant, 0=no damage
Description: as §1, §2, §3

Row | SMILES | Control of weed species LOLPE after post-emergence application (100=total damage to plant; 0=no damage to plant) [1] | Control of weed species after post-emergence application, IPOHE [2] | Control of weed species after post-emergence application, ECHCG [3] | Control of weed species after post-emergence application, LOLPE [1] | Control of weed species after post-emergence application, CHEAL [4] | Control of weed species after post-emergence application, ELEIN [5] | Control of weed species after post-emergence application, SETFA [6] | Control of weed species after post-emergence application, DIGSA [7] | Control of weed species after post-emergence application, AMAPA [8] | Control of weed species ECHCG after post-emergence application (100=total damage to plant; 0=no damage to plant) [3] | Control of weed species SETFA after post-emergence application (100=total damage to plant; 0=no damage to plant) [6] | Control of weed species CHEAL after post-emergence application (100=total damage to plant; 0=no damage to plant) [4] | Control of weed species ELEIN after post-emergence application (100=total damage to plant; 0=no damage to plant) [5] | Control of weed species EPHHL after post-emergence application (100=total damage to plant; 0=no damage to plant) [9] | Control of weed species DIGSA after post-emergence application (100=total damage to plant; 0=no damage to plant) [7] | Control of weed species AMAPA after post-emergence application (100=total damage to plant; 0=no damage to plant) [8] | Control of weed species after post-emergence application, EPHHL [9]
1 | O=C(O)CC[n+]1ccc(-c2ncccn2)cn1.O=C([O-])C(F)(F)F [Compound A125, 3-(4-pyrimidin-2-ylpyridazin-1-ium-1-yl)propanoic acid 2,2,2-trifluoroacetate] | 90 |  |  |  |  |  |  |  |  |  |  |  |  |  |  |  | 
2 | CCOP(=O)(O)CCC[n+]1ccc(-c2ncccn2)cn1 [Compound A232] |  | 0 | 100 | 20 | 90 | 50 | 80 | 90 | 100 |  |  |  |  |  |  |  | 
3 | O=C(O)CC[n+]1ccc(-c2ncccn2)cn1.[Cl-] [Compound A26, 3-(4-pyrimidin-2-ylpyridazin-1-ium-1-yl)propanoic Acid Chloride] | 90 |  |  |  |  |  |  |  |  | 100 | 100 |  |  |  |  |  | 
4 | O=C(O)CC[n+]1ccc(-c2cc(C(F)(F)F)ncn2)cn1.O=C([O-])C(F)(F)F [Compound A119] |  |  |  |  |  |  |  |  |  | 30 | 40 | 100 | 30 | 70 | 40 | 100 | 
5 | Cc1c[n+](CCC(=O)O)ncc1-c1ncccn1.O=C([O-])C(F)(F)F [Compound A153] |  |  | 40 |  | 60 | 20 | 20 | 20 | 90 |  |  |  |  |  |  |  | 40
6 | O=C(O)CC[n+]1ccc(-c2cnc(C(F)(F)F)cn2)cn1.O=C([O-])C(F)(F)F [Compound A121] |  |  |  |  |  |  |  |  |  | 40 | 30 | 80 | 20 | 80 | 40 | 100 | 
7 | O=C(O)CC[n+]1ccc(-c2ccnc(O)n2)cn1.O=C([O-])C(F)(F)F [Compound A86] |  |  |  |  |  |  |  |  |  | 20 | 40 | 40 | 10 | 50 | 30 | 30 | 
8 | Cc1n[n+](CCC(=O)O)ccc1-c1ncccn1.[Cl-] [Compound A133] |  |  |  |  |  |  |  |  |  | 70 | 90 | 40 | 90 | 20 | 70 | 60 | 
9 | Cc1cncc(-c2cc[n+](CCC(=O)O)nc2)n1.O=C([O-])C(F)(F)F [Compound A85] |  |  |  |  |  |  |  |  |  | 70 | 90 | 90 | 90 | 100 | 90 | 90 | 
10 | O=C(O)CC[n+]1ccc(-c2ncccc2C(F)(F)F)cn1.O=C([O-])C(F)(F)F [Compound A128] |  |  |  |  |  |  |  |  |  | 30 | 30 | 10 | 50 | 0 | 30 | 30 | 
11 | CC(C)(C[n+]1ccc(-c2ccncn2)cn1)C(=O)O.O=C([O-])C(F)(F)F [Compound A167] |  |  | 60 |  | 70 | 80 | 40 | 50 | 20 |  |  |  |  |  |  |  | 90
12 | COC(=O)CC[n+]1ccc(-c2ncccn2)cn1.O=C([O-])C(F)(F)F [Compound A54, methyl 3-(4-pyrimidin-2-ylpyridazin-1-ium-1-yl)propanoate 2,2,2-trifluoroacetate] |  |  |  |  |  |  |  |  |  | 90 | 100 | 90 | 100 | 70 | 100 | 90 | 
13 | CCOP(=O)(C[n+]1ccc(-c2ncccn2)cn1)OCC.O=C([O-])C(F)(F)F [Compound A230, 1-(diethoxyphosphorylmethyl)-4-pyrimidin-2-yl-pyridazin-1-ium 2,2,2-trifluoroacetate] |  | 20 | 60 | 0 | 60 | 10 | 50 | 70 | 50 |  |  |  |  |  |  |  | 
14 | CC(C)(CC(=O)O)[n+]1ccc(-c2ccncn2)cn1.O=C([O-])C(F)(F)F [Compound A189] |  |  | 80 |  | 100 | 90 | 70 | 50 | 100 |  |  |  |  |  |  |  | 90
15 | CC(CC(=O)O)[n+]1ccc(-c2ncccn2)cn1.O=C([O-])C(F)(F)F (centres unmarked) [Compound A40, 3-(4-pyrimidin-2-ylpyridazin-1-ium-1-yl)butanoic acid 2,2,2-trifluoroacetate] |  |  |  |  |  |  |  |  |  | 90 | 100 | 70 | 90 | 90 | 90 | 90 | 
16 | O=C(O)CC[n+]1ccc(-c2ccncc2F)cn1.O=C([O-])C(F)(F)F [Compound A157] |  |  | 80 |  | 100 | 90 | 80 | 70 | 100 |  |  |  |  |  |  |  | 80
